PMC3591361 (PLoS ONE, 2013)
Values after ≈ are worked out from the molar mass of the structure shown.

What was measured:
[1] = combination therapy; weekly i.v. infusion for paclitaxel, twice-weekly i.v. infusion for 17-AAG; cited from earlier work
in vivo = test: in vivo; parameters: species or system mice; conditions: i.v.; for half-life: female, athymic nude (nu/nu), mouse, iv, read-out: t1/2 (elimination half-life); for plasma concentration at 4 h: free drug administration (combined free drugs in DMSO)
Experimental: Human ovarian cancer SKOV-3 cells (2 x 10^6 in 0.1 ml matrigel/DMEM mixture) were implanted subcutaneously in each flank of 5–6 week-old female athymic nude mice (nu/nu, Charles River, Wilmington, MA). The tumor size was measured using a caliper, and the tumor volume was calculated as ½ × length × width^2.
Once SKOV-3 tumor volumes reached 100–300 mm^3, the mice were randomized into study groups (4 mice per group). […] At 5, 10, 15, 30, 60, 120 and 240 min post injection, whole blood was collected via the retro-orbital bleeding. Normal organs (liver, lung, spleen, kidney and heart) and tumor tissues were harvested at 120 min. […] The HPLC system (Waters, Milford, MA) consisted of a Waters 2795 pump, a Phenomenex (Torrance, CA) C8 column (5 µm, i.d. 4.6 mm × 150 mm) and a Waters 996 photodiode array detector. α-Naphthoflavone was used as an internal standard. […] For tissue homogenate samples, a gradient elution of A: sodium phosphate buffer and B: methanol (0–30 min 46% A, 30.01–40 min 28% A, 40.01–45 min 46% A) was used. The flow rate was 1.5 ml/min at 40°C. The assay methodology was established using blank plasma and tissue homogenate samples spiked with known drug concentrations. […] Representative chromatograms of the pure drugs, an extract of drug-spiked liver tissue, and an extract of blank liver tissue at 227, 333 and 281 nm are shown in Fig. 2.

[2] = free drug; stated without reference; cited from earlier work
[3] = Stability of ICG fluorescence in HBS at 37°C; type: physicochemical
Experimental: To confirm the incorporation of ICG into the micelles, the stability of ICG-labeled micelles was studied at 37°C. Freshly prepared free ICG solution in HBS at the identical concentration was used as a control. At 0, 2, 4, 8, 24 and 48 h, aliquots of the micellar or free ICG solution were analyzed for the fluorescence intensity at 800 nm using Odyssey imaging system (LI-COR Biosciences, Lincoln, NE). All samples were prepared and analyzed in triplicates.

[4] = In vivo whole-body NIR fluorescence imaging in SKOV-3 tumor-bearing mice; conditions: i.v., ICG dose 2 mg/kg, 800 nm channel
Experimental: ICG-labeled micelles were administered to SKOV-3 tumor-bearing mice via the tail vein injection at an ICG dose of 2 mg/kg. Freshly prepared free ICG solution in HBS was i.v. injected at the same dose to the control mice. Immediately following the injection (0 h) and at 1, 2, 4, 6, 24 and 48 h, the mice were anesthetized under a continuous flow of isoflurane/oxygen, and the spectral fluorescence signals of the whole body images (800 nm channel) were obtained using the Odyssey imaging system.

[5] = plasma, combined free drugs in DMSO, 20 mg/kg paclitaxel + 37.5 mg/kg 17-AAG, plasma, mean ± SD, n = 4

Row | decrease in fluorescence emission intensity ([3]; 8 h) | decrease in fluorescence emission intensity ([3]; 48 h) | clearance of fluorescence signal from the circulation/body [4] | Structure (SMILES) | maximum tolerated dose in cancer patients [1] [mg/m^2] | half-life (in vivo; [5]) [min] | plasma concentration at 4 h (in vivo) | aqueous solubility [2] [µM] | AUC (in vivo; combined free drugs in DMSO, 20 mg/kg paclitaxel + 37.5 mg/kg 17-AAG, plasma, mean ± SD, n = 4) [uM⋅min]
1 | – | – | – | C=CCNC1=C2C[C@@H](C)C[C@H](OC)[C@H](O)[C@@H](C)/C=C(\C)[C@H](OC(N)=O)[C@@H](OC)/C=C\C=C(/C)C(=O)NC(=CC1=O)C2=O [17-AAG, Tanespimycin] | 175 | 20.3 ± 2.5 | below the detection limit | 17 (≈ 9.96 µg/mL) | –
2 | about 50% | over 80% | rapidly cleared from the circulation | CC1(C)C(/C=C/C=C/C=C/C=C2\N(CCCCS(=O)(=O)O)c3ccc4ccccc4c3C2(C)C)=[N+](CCCCS(=O)(=O)[O-])c2ccc3ccccc3c21 [ICG, indocyanine green] | – | – | – | – | –
3 | – | – | – | CC(=O)O[C@H]1C(=O)[C@@]2(C)[C@H]([C@H](OC(=O)c3ccccc3)[C@]3(O)C[C@H](OC(=O)[C@H](O)[C@@H](NC(=O)c4ccccc4)c4ccccc4)C(C)=C1C3(C)C)[C@]1(OC(C)=O)CO[C@@H]1C[C@@H]2O [paclitaxel, Paclitaxel] | 80 | ~40 | below the detection limit | – | 415.3±56.7
